Results: US12077503B2, “Substituted cyclic amides and their use as herbicides” (FMC CORPORATION, priority 2015, dated 2024)

Legend:
Test in all cases: Test C flooded paddy test
Assay type in all cases: in vivo
Details in all cases: Flood, 0 is no effect, 100 is complete control
[1] = system: barnyardgrass (Echinochloa crus-galli)
How it was run: (§1)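 Test compounds were dosed straight into the flood water of pots holding 2-leaf-stage plants, with water kept 3 cm above the soil. Greenhouse plants were scored visually against controls after 13 to 15 d, from 0 (no effect) to 100 (complete control).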

[2] = system: sedge, umbrella (small-flower umbrella sedge, Cyperus difformis)
How it was run: as §1

[3] = system: ducksalad (Heteranthera limosa)
How it was run: as §1

[4] = system: rice (Oryza sativa)
How it was run: as §1

With CN1C[C@H](c2ccc(F)c(F)c2)[C@@H](C(=O)Nc2ccccc2F)C1=O [Compound 596, (3S,4S)-4-(3,4-difluorophenyl)-N-(2-fluorophenyl)-1-methyl-2-oxo-3-pyrrolidinecarboxamide] the “Plant response rating (scale of 0 to 100), Barnyardgrass” value (“Plant response rating … Barnyardgrass” below) ([1]; 31 g ai/ha) was 0, the “Plant response rating … Barnyardgrass” value ([1]; 62 g ai/ha) was 60 and the “Plant response rating … Barnyardgrass” value ([1]; 125 g ai/ha) was 75. The “Plant response rating … Barnyardgrass” value ([1]; 250 g ai/ha) was 85, the “Plant response rating (scale of 0 to 100), Sedge, Umbrella” value (shortened to “Plant response rating … Umbrella”) ([2]; 31 g ai/ha) was 0 and the “Plant response rating … Umbrella” value ([2]; 62 g ai/ha) was 0. For the same compound, the “Plant response rating … Umbrella” value ([2]; 125 g ai/ha) was 0, the “Plant response rating … Umbrella” value ([2]; 250 g ai/ha) was 0 and the “Plant response rating (scale of 0 to 100), Ducksalad” value (shortened to “Plant response rating … Ducksalad”) ([3]; 31 g ai/ha) was 30. The “Plant response rating … Ducksalad” value ([3]; 62 g ai/ha) was 60, the “Plant response rating … Ducksalad” value ([3]; 125 g ai/ha) was 90 and the “Plant response rating … Ducksalad” value ([3]; 250 g ai/ha) was 100. For the same compound, the “Plant response rating (scale of 0 to 100), Rice” value (“Plant response rating … Rice” for short) ([4]; 31 g ai/ha) was 0, the “Plant response rating … Rice” value ([4]; 62 g ai/ha) was 0 and the “Plant response rating … Rice” value ([4]; 125 g ai/ha) was 10. For the same compound, the “Plant response rating … Rice” value ([4]; 250 g ai/ha) was 10.
